Reference: patent publication US9546179B2, “Heterocycle amido alkyloxy substituted quinazoline derivative and use thereof” (priority 2011, dated 2017)
pIC50: −log10 of the molar value. Marks after values point to notes of the source that are not given here.

What was measured:
[1] = target: T1, receptor tyrosine kinase EGFR (Homo sapiens, UniProt P00533); test: Inhibitory effect on receptor tyrosine kinase EGFR (ELISA, Poly(Glu, Tyr)4:1, PY99 antibody); type: biochemical; conditions: ATP 4 μM, 1 hour at 37° C.
T1 construct: purchased Shanghai 3bio Technology Co., Ltd. Lot No. 4018780925
T1 sequence (P00533 25-1210): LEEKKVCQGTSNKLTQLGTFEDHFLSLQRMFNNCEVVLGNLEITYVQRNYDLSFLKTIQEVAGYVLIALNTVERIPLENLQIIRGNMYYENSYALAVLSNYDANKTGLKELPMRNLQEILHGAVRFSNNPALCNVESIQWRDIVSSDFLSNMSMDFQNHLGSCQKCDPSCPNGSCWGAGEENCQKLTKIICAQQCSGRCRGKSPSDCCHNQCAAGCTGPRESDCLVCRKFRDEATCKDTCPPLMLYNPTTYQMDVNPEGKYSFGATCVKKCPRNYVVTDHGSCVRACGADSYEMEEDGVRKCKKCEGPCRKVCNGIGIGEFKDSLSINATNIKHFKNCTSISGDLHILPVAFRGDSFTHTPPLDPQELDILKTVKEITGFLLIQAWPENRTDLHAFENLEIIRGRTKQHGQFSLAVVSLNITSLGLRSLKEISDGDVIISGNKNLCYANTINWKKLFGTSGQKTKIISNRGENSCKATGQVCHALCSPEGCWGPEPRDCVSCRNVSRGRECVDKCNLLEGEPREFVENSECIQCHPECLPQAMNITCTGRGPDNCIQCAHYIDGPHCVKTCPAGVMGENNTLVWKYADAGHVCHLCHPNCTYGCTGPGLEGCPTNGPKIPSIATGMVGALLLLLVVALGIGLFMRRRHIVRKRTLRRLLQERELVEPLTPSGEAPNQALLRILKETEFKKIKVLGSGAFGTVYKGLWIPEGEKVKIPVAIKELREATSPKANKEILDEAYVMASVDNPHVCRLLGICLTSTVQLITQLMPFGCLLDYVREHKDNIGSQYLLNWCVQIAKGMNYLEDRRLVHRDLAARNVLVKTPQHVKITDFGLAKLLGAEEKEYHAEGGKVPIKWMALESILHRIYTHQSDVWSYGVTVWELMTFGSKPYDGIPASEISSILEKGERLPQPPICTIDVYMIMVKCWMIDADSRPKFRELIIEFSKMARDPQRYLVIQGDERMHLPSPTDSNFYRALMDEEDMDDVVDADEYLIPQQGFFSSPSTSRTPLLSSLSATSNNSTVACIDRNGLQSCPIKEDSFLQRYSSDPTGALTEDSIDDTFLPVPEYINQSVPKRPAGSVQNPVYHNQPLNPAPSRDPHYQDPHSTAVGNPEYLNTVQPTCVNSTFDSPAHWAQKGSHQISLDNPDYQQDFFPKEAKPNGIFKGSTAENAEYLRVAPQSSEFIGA
Summary of the method: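 Poly(Glu,Tyr)4:1-coated plates; kinase reaction with 4 μM ATP and compound at 1.0000–0.00024 μg/ml, run 1 h at 37 °C. Phosphotyrosine detected with PY99 and HRP anti-mouse IgG, OPD colour read at A492, and inhibition rate calculated.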

[2] = test system: Human lung cancer cells (A549); test: Anticancer effect in vitro on A549 cells (MTT, GI50); type: cell-based; conditions: A549, 72 hours
Experimental: The inhibitory effect on the cancer cells of the compounds prepared in Example 1-Example 13, Example 20, Example 48, Example 49 and Example 57 was determined in vitro using cancer cells. The results are shown in table 2, and the specific detection methods are as follows:
Human lung cancer cells were (A549, purchased from Shanghai FuMeng Gene Bio-technology Co., Ltd.) cultured in DMEM containing 2 m M/L-glutamine and 10% FBS, and inoculated in 96-well plate, 200 μL/well and 2000 cells per well; the plate was preincubated for 24 hours under the condition of 5% CO2 and 100% relative humidity at 37° C., allowing for cell adherence.
When the cells adhered, the supernatant was removed, and 200 μL drug-containing culture medium was added with different concentration of compounds into each well (in concentration of 20 μg/ml, 12.5 µg/ml, 6.25 μg/ml, […], 1.5625 μg/ml and 0.78125 μg/ml), 3 multiple wells were set up for each drug concentration as well as blank control (cell culture medium without cells), and drug-free control (with no drugs, filled with complete medium in equal amount only), cultured for 72 hours under the condition of 5% CO2 incubator at 37° C. (100% relative humidity).
After the culture ended, the supernatant was carefully removed, and adding 200 μl DMEM culture medium containing 3% FBS with 500 μg/ml MTT into each well, and culturing for 4 hours under the condition of 5% CO2 incubator at 37° C. (100% relative humidity). After the supernatant was discarded, 150 μL DMSO was added in each well for solving. the GI50 value was measured by detecting the absorbance in the 570 nm wavelength.

[3] = test system: human lungs cancer cell strain A549; test: Tumor inhibitory effect on nude mice bearing A549 tumors; type: in vivo
Experimental: After digesting and detaching the monolayer-cultured human lungs cancer cell strain A549 (purchased from Shanghai FuMeng Gene Bio-technology Co., Ltd.), cells were collected and resuspended in the serum-free culture medium, and the concentration was adjusted to be 2×10^6/0.2 mL. 0.2 mL cell suspension was taken by injector and transplanted under the skin of square scapula behind left armpit of nude mice, 0.2 mL for each mouse. The tumor volume was measured every 2 or 3 days. The nude mice bearing tumors which rapidly grew without any diabrosis were selected after two weeks. Under the condition of asepsis, the tumors were removed, and cut into tumor tissue with the diameter of approximately 2-3 mm, and then inoculate the tissue under the skin of square scapula behind left armpit of nude mice by trocar. After repetition in three generations, the nude mice received administration randomly in groups excluding the ones bearing too large or too small tumors, when the tumor grew to be about 100 mm^3 in volume.
The selected animals were 6-week old BALB/C nude mice. The male mice were 20-22 g in weight and provided by Shanghai Laboratory Animal Center (SIPPR BK) (production permit No. SCXK (Hu) 2008-0016). The experimental period was totally 111 days.
The experiment was randomly divided into 2 groups, the negative control group consisting of 12 mice (solvent administration only) and treatment group consisting of 12 mice (compound C, 100 mg/kg).
Ethanol was used as cosolvent to promote dissolution of compound C, adding 0.5 w/v % carboxymethyl cellulose to form suspension with a 0.5% final concentration of carboxymethyl cellulose and a 10 w/v % final concentration of ethanol, and then, using ultrasound to form uniform suspension. The dosage for intragastric administration was 0.1 ml/10 g, and the negative control group was only subjected to the same solvent. On the first day of experiment, compound C was given 100 mg/kg in the morning and in the evening respectively, and afterwards, 100 mg/kg was given in every morning only. The negative control group was only given 0.1 ml/10 g of 10 v/v % ethanol 0.5 w/v % carboxymethyl cellulose in every morning.
Index: observing state of animals and measuring body weight daily; measuring tumors by calipers every two days. Sacrifice the animal in 24 hours after the last administration and measure the volume and size of tumor. Dissecting the animal and removing the tumor; weighing the tumor and nude mice; and then, drawing the curves of tumor volume and growth, nude mouse weight, tumor inhibition rate and animal death rate.
Tumor diameter measurement is used to observe the antitumor effect of the test substances dynamically. The formula for tumor volume (TV) calculation is: v=0.5×a×b^2(mm^3); wherein, a and b stand for length and width respectively.
The relative tumor volume (RTV) is calculated according to the measurement result; RTV=Vt/V0, wherein V0 is the tumor volume measured at the beginning of administration (i.e. d0) and Vt is the tumor volume at each measurement.
The index to evaluate antitumor activity is relative tumor proliferation rate T/C (%)
In the above formula, TRTV: RTV of treatment group, CRTV: RTV of negative control group.

[4] = A549 in nude mice, 100 mg/kg intragastric, 21st day after administration

Row | SMILES | pIC50 [1] | GI50 [2] [µM] | other results
1 | COc1cc2ncnc(Nc3cc(Cl)ccc3F)c2cc1OCCCN1CC[C@H]2OCC[C@H]21 (relative stereo) [Example 20, 4-(5′-chloro-2′-fluorophenylamino)-6-[3-(cis-hexahydrofuro[3,2-b]pyrrole-4-yl)-propoxy]-7-methoxyquinazoline] | 7.00 to 8.00 | 59.5 | 
2 | COc1cc2ncnc(Nc3ccc(F)c(Cl)c3)c2cc1OCCCN1CC2(COC2)C1 [Example 1, 4-(3′-chloro-4′-fluorophenylamino)-6-[3-(2-oxa-6-azaspiro[3.3]heptane-6-yl)-propoxy]-7-methoxyquinazoline] | 7.00 to 8.00 | 39.7 | 
3 | COc1cc2ncnc(Nc3ccc(F)c(Cl)c3)c2cc1OCCCN1CCC2(COC2)C1 [Example 2, 4-(3′-chloro-4′-fluorophenylamino)-6-[3-(2-oxa-6-azaspiro[3.4]octane-6-yl)-propoxy]-7-methoxyquinazoline] |  | 20.4 | body weight of the nude mice compared with the control group ([3]; 100 mg/kg intragastric, FIG. 1): consistent fluctuation; average tumor weight compared with the negative group ([3]; 21st day after administration, 100 mg/kg, P<0.05): less than the negative group; Tumor mass [3, 4]: 0.55 ± 0.43 g; Tumor volume [3, 4]: 515.4 ± 388.0** mm^3; Tumor inhibition rate ([3]; A549 in nude mice, 100 mg/kg intragastric, from tumor weight): 47.62%; T/C % ([3]; A549 in nude mice, 100 mg/kg intragastric, relative tumor proliferation rate): 43.44%; RTV ([3]; A549 in nude mice, 100 mg/kg intragastric, relative tumor volume Vt/V0): 4.57 ± 2.11; tumor volume and size compared with the control group ([3]; two weeks after administration, 100 mg/kg, p<0.05, FIG. 2): significantly less than the control group
4 | COc1cc2ncnc(Nc3ccc(F)c(Cl)c3)c2cc1OCCN1CCC2(COC2)C1 [Example 3, 4-(3′-chloro-4′-fluorophenylamino)-6-[2-(2-oxa-6-azaspiro[3.4]octane-6-yl)-oxethyl]-7-methoxyquinazoline] | 6.00 to 7.00 | 10.2 | 
5 | COc1cc2ncnc(Nc3ccc(F)c(Cl)c3)c2cc1OCCCN1CC2(CCOCC2)C1 [Example 4, 4-(3′-chloro-4′-fluorophenylamino)-6-[3-(7-oxa-2-azaspiro[3.5]nonane-2-yl)-propoxy]-7-methoxyquinazoline] | 7.00 to 8.00 | 8.5 | 
6 | COc1cc2ncnc(Nc3ccc(F)c(Cl)c3)c2cc1OCCCN1CCC2(CC1)COC2 [Example 5, 4-(3′-chloro-4′-fluorophenylamino)-6-[3-(2-oxa-7-azaspiro[3.5]nonane-7-yl)-propoxy]-7-methoxyquinazoline] | 7.00 to 8.00 | 8.6 | 
7 | COc1cc2ncnc(Nc3ccc(F)c(Cl)c3)c2cc1OCCN1CCC2(CC1)COC2 [Example 6] | 7.00 to 8.00 | 20.7 | 
8 | COc1cc2ncnc(Nc3ccc(F)c(Cl)c3)c2cc1OCCCN1CCC2(CCOC2)C1 (centres unmarked) [Example 7, 4-(3′-chloro-4′-fluorophenylamino)-6-[3-(2-oxa-7-azaspiro[4.4]nonane-7-yl)-propoxy]-7-methoxyquinazoline] | 7.00 to 8.00 | 15.1 | 
9 | COc1cc2ncnc(Nc3ccc(F)c(Cl)c3)c2cc1OCCN1CCC2(CCOC2)C1 (centres unmarked) [Example 8, 4-(3′-chloro-4′-fluorophenylamino)-6-[2-(2-oxa-7-azaspiro[4.4]nonane-7-yl)-oxethyl]-7-methoxyquinazoline] | 7.00 to 8.00 | 23.4 | 
10 | COc1cc2ncnc(Nc3ccc(F)c(Cl)c3)c2cc1OCCCN1CCC2(CCOCC2)C1 [Example 9, 4-(3′-chloro-4′-fluorophenylamino)-6-[3-(8-oxa-2-azaspiro[4.5]decane-2-yl)-propoxy]-7-methoxyquinazoline] | 7.00 to 8.00 | 24.3 | 
11 | COc1cc2ncnc(Nc3ccc(F)c(Cl)c3)c2cc1OCCN1CCC2(CCOCC2)C1 [Example 10, 4-(3′-chloro-4′-fluorophenylamino)-6-[2-(8-oxa-2-azaspiro[4.5]decane-2-yl)-oxethyl]-7-methoxyquinazoline] | 7.00 to 8.00 | 35.2 | 
12 | COc1cc2ncnc(Nc3ccc(F)c(Cl)c3)c2cc1OCCN1CC2CCC(C1)O2 [Example 11, 4-(3′-chloro-4′-fluorophenylamino)-6-[2-(8-oxa-3-azabicyclo[3.2.1]octane-3-yl)-oxethyl]-7-methoxyquinazoline] | 6.00 to 7.00 | 26.6 | 
13 | COc1cc2ncnc(Nc3ccc(F)c(Cl)c3)c2cc1OCCN1C2CCC1COC2 [Example 13, 4-(3′-chloro-4′-fluorophenylamino)-6-[2-(3-oxa-8-azabicyclo[3.2.1]octane-8-yl)-oxethyl]-7-methoxyquinazoline] | 7.00 to 8.00 | 28.8 | 
14 | C#Cc1cccc(Nc2ncnc3cc(OC)c(OCCCN4CC5(CNC(=O)O5)C4)cc23)c1 [Example 48] | 8.00 to 10.00 | 17.8 | 
15 | C#Cc1cccc(Nc2ncnc3cc(OC)c(OCCCN4CC5(C4)CN(C)C(=O)O5)cc23)c1 [Example 49] | 8.00 to 10.00 | 21 | 
16 | COc1cc2ncnc(Nc3ccc(F)c(Cl)c3)c2cc1OCCN1CC2(CNC(=O)C2)C1 [Example 57, 4-(3′-chloro-4′-fluorophenylamino)-6-[2-(2,6-diazaspiro[3.4]octane-7-ketone-2-yl)-oxethyl]-7-m ethoxyquinazoline] | < 6.00 | 23.8 | 
17 | [2H]C([2H])([2H])Oc1cc2ncnc(Nc3ccc(F)c(Cl)c3)c2cc1OCCCN1CC2(CNC(=O)O2)C1 [Example 97, 4-(3′-chloro-4′-fluorophenylamino)-6-[3-(5-oxa-2,7-diazaspiro[3.4]octane-6-ketone-2-yl)-propoxy]-7-deuterated methoxyquinazoline] | 6.00 to 7.00 |  | 
18 | [2H]C([2H])([2H])Oc1cc2ncnc(Nc3ccc(F)c(Cl)c3)c2cc1OCCCN1CC2(C1)CN(C)C(=O)O2 [Example 98, 4-(3′-chloro-4′-fluorophenylamino)-6-[3-(7-methyl-5-oxa-2,7-diazaspiro[3.4]octane-6-ketone-2-yl)-propoxy]-7-deuterated methoxyquinazoline] | 8.00 to 10.00 |  | 
